ChEMBL document CHEMBL1152576, “E-Combretastatin and E-resveratrol structural modifications: antimicrobial and cancer cell growth inhibitory beta-E-nitrostyrenes” (Bioorg Med Chem, 2009)
≈ marks a conversion by molar mass, not a printed value. Calls of active or inactive are those of the source. No cut-off for these calls is given here.

Key:
NCI-H460 = test: Cytotoxicity against human NCI-H460 cells after 48 hrs by sulforhodamine B assay; type: functional
MCF7 = test: Cytotoxicity against human MCF7 cells after 48 hrs by sulforhodamine B assay; type: functional
Neisseria gonorrhoeae [1] = test: Antimicrobial activity against Neisseria gonorrhoeae ATCC 49226 assessed clear zone of inhibition measured per disk by CLSI disk diffusion susceptibility assay; type: functional
BXPC-3 = test: Cytotoxicity against human BxPC3 cells after 48 hrs by sulforhodamine B assay; type: functional
DU-145 = test: Cytotoxicity against human DU145 cells after 48 hrs by sulforhodamine B assay; type: functional
Enterococcus faecalis [2] = test: Antimicrobial activity against Enterococcus faecalis ATCC 29212 by broth microdilution susceptibility assay; type: functional
Escherichia coli [3] = test: Antimicrobial activity against Escherichia coli ATCC 25922 assessed clear zone in inhibition per disk by CLSI disk diffusion susceptibility assay; type: functional
Candida albicans [4] = test: Antimicrobial activity against Candida albicans ATCC 90028 assessed clear zone in inhibition per disk by CLSI disk diffusion susceptibility assay; type: functional
Staphylococcus aureus [5] = test: Antimicrobial activity against Staphylococcus aureus ATCC 29213 assessed clear zone in inhibition per disk by CLSI disk diffusion susceptibility assay; type: functional
Staphylococcus aureus [6] = test: Antimicrobial activity against Staphylococcus aureus ATCC 29213 by broth microdilution susceptibility assay; type: functional
Cryptococcus neoformans [7] = test: Antifungal activity against Cryptococcus neoformans ATCC 90112 after 72 hrs by broth microdilution susceptibility assay; type: functional; settings: ATCC 90112, 72 h
Enterobacter cloacae [8] = test: Antimicrobial activity against Enterobacter cloacae ATCC 13047 by broth microdilution susceptibility assay; type: functional
SF-268 = test: Cytotoxicity against human SF268 cells after 48 hrs by sulforhodamine B assay; type: functional
KM-20L2 = test: Cytotoxicity against human KM20L2 cells after 48 hrs by sulforhodamine B assay; type: functional
Staphylococcus aureus [9] = test: Antimicrobial activity against Staphylococcus aureus ATCC 29213 after 24 hrs by broth microdilution susceptibility assay; type: functional; settings: ATCC 29213, 24 h
[10] = tested on: Stenotrophomonas maltophilia; test: Antimicrobial activity against Stenotrophomonas maltophilia ATCC 13637 by broth microdilution susceptibility assay; type: functional
Streptococcus pneumoniae [11] = test: Antimicrobial activity against Streptococcus pneumoniae ATCC 6303 by broth microdilution susceptibility assay; type: functional
Neisseria gonorrhoeae [12] = test: Antimicrobial activity against Neisseria gonorrhoeae ATCC 49226 by broth microdilution susceptibility assay; type: functional
A498 = test: Cytotoxicity against human A498 cells after 48 hrs by sulforhodamine B assay; type: functional
SK-MEL-5 = test: Cytotoxicity against human SK-MEL-5 cells after 48 hrs by sulforhodamine B assay; type: functional
Enterococcus faecalis [13] = test: Antimicrobial activity against Enterococcus faecalis ATCC 29212 assessed clear zone in inhibition per disk by CLSI disk diffusion susceptibility assay; type: functional
Escherichia coli [14] = test: Antimicrobial activity against Escherichia coli ATCC 25922 by broth microdilution susceptibility assay; type: functional
Cryptococcus neoformans [15] = test: Antimicrobial activity against Cryptococcus neoformans ATCC 90112 assessed clear zone in inhibition per disk by CLSI disk diffusion susceptibility assay; type: functional
Cryptococcus neoformans [16] = test: Antifungal activity against Cryptococcus neoformans ATCC 90112 after 48 hrs by broth microdilution susceptibility assay; type: functional; settings: ATCC 90112, 48 h
Enterobacter cloacae [17] = test: Antimicrobial activity against Enterobacter cloacae ATCC 13047 assessed clear zone in inhibition per disk by CLSI disk diffusion susceptibility assay; type: functional
[18] = tested on: Stenotrophomonas maltophilia; test: Antimicrobial activity against Stenotrophomonas maltophilia ATCC 13637 assessed clear zone in inhibition per disk by CLSI disk diffusion susceptibility assay; type: functional
Streptococcus pneumoniae [19] = test: Antimicrobial activity against Streptococcus pneumoniae ATCC 6303 after 24 hrs by broth microdilution susceptibility assay; type: functional; settings: ATCC 6303, 24 h
Micrococcus luteus [20] = test: Antimicrobial activity against Micrococcus luteus Presque Isle 456 by broth microdilution susceptibility assay; type: functional
SF-295 = test: Cytotoxicity against human SF295 cells after 48 hrs by sulforhodamine B assay; type: functional
OVCAR-3 = test: Cytotoxicity against human OVCAR-3 cells after 48 hrs by sulforhodamine B assay; type: functional
[21] = Inhibition of tubulin polymerization
Streptococcus pneumoniae [22] = test: Antimicrobial activity against Streptococcus pneumoniae ATCC 6303 assessed clear zone in inhibition per disk by CLSI disk diffusion susceptibility assay; type: functional
Candida albicans [23] = test: Antifungal activity against Candida albicans ATCC 90028 after 48 hrs by broth microdilution susceptibility assay; type: functional; settings: ATCC 90028, 48 h
Neisseria gonorrhoeae [24] = test: Antimicrobial activity against Neisseria gonorrhoeae ATCC 49226 after 24 hrs by broth microdilution susceptibility assay; type: functional; settings: ATCC 49226, 24 h
Micrococcus luteus [25] = test: Antimicrobial activity against Micrococcus luteus Presque Isle 456 assessed clear zone in inhibition per disk by CLSI disk diffusion susceptibility assay; type: functional
P388 = test: Cytotoxicity against mouse P388 cells after 48 hrs by sulforhodamine B assay; type: functional; settings: for EC50: P388, 48 h, read-out: ED50 (the source's name)
Candida albicans [26] = test: Antifungal activity against Candida albicans ATCC 90028 after 24 hrs by broth microdilution susceptibility assay; type: functional; settings: ATCC 90028, 24 h

| SMILES | MIC (Neisseria gonorrhoeae [1]) | MIC (Enterococcus faecalis [2]) | MIC (Escherichia coli [3]) | MIC (Candida albicans [4]) | MIC (Staphylococcus aureus [5]) | MIC (Staphylococcus aureus [6]) | MIC (Cryptococcus neoformans [7]) | MIC (Enterobacter cloacae [8]) | MIC [10] | MIC (Streptococcus pneumoniae [11]) | MIC (Neisseria gonorrhoeae [12]) | GI50 (A498) | GI50 (SK-MEL-5) | MIC (Enterococcus faecalis [13]) | MIC (Escherichia coli [14]) | MIC (Cryptococcus neoformans [15]) | MFC (Cryptococcus neoformans [16]) | MIC (Enterobacter cloacae [17]) | MIC [18] | MBC (Streptococcus pneumoniae [19]) | other results |
| --- | --- | --- | --- | --- | --- | --- | --- | --- | --- | --- | --- | --- | --- | --- | --- | --- | --- | --- | --- | --- | --- |
| COc1cc(/C=C/[N+](=O)[O-])ccc1OCc1ccccc1 | <0.78 µg | > 64 µg/mL | >100 µg | >100 µg | 6.25 µg | 4 µg/mL (≈ 14 µM) | 32 µg/mL (≈ 112 µM) | > 64 µg/mL | > 64 µg/mL | 16 µg/mL (≈ 56.1 µM) | 1 µg/mL (≈ 3.51 µM) | inactive | inactive | >100 µg | > 64 µg/mL | <0.78 µg | 64 µg/mL (≈ 224 µM) | >100 µg | >100 µg | 32 µg/mL (≈ 112 µM) | GI50 (NCI-H460; NCI-H460, 48 h): 1.3 µg/mL (≈ 4.56 µM); GI50 (MCF7; MCF7, 48 h): 0.96 µg/mL (≈ 3.36 µM); GI50 (BXPC-3; BXPC-3, 48 h): 1.7 µg/mL (≈ 5.96 µM); GI50 (DU-145; DU-145, 48 h): 1.3 µg/mL (≈ 4.56 µM); GI50 (SF-268; SF-268, 48 h): 0.94 µg/mL (≈ 3.29 µM); GI50 (KM-20L2; KM-20L2, 48 h): 1.5 µg/mL (≈ 5.26 µM); MBC (Staphylococcus aureus [9]): > 16 µg/mL; MIC (Micrococcus luteus [20]): 4 µg/mL (≈ 14 µM); GI50 (SF-295): inactive; GI50 (OVCAR-3): inactive; IC50 [21]: 2.5 µM; MIC (Streptococcus pneumoniae [22]): 12.5 µg; MIC (Candida albicans [23]): > 64 µg/mL; MBC (Neisseria gonorrhoeae [24]): 2 µg/mL (≈ 7.01 µM); MIC (Micrococcus luteus [25]): >100 µg; EC50 (P388): 16.6 µg/mL (≈ 58.2 µM) |
| COc1cc(/C=C/[N+](=O)[O-])cc(OC)c1 | 0.78 µg | > 64 µg/mL | >100 µg | 3.12 µg | 6.25 µg | > 64 µg/mL | 16 µg/mL (≈ 76.5 µM) | > 64 µg/mL | > 64 µg/mL | 64 µg/mL (≈ 306 µM) | 2 µg/mL (≈ 9.56 µM) | inactive | inactive | 12.5 µg | > 64 µg/mL | 0.78 µg | 16 µg/mL (≈ 76.5 µM) | >100 µg | >100 µg | > 64 µg/mL | GI50 (NCI-H460; NCI-H460, 48 h): 2 µg/mL (≈ 9.56 µM); GI50 (MCF7; MCF7, 48 h): 1.8 µg/mL (≈ 8.6 µM); GI50 (BXPC-3; BXPC-3, 48 h): 1.6 µg/mL (≈ 7.65 µM); GI50 (DU-145; DU-145, 48 h): 1.5 µg/mL (≈ 7.17 µM); GI50 (SF-268; SF-268, 48 h): 2.3 µg/mL (≈ 11 µM); GI50 (KM-20L2; KM-20L2, 48 h): 1.5 µg/mL (≈ 7.17 µM); MFC (Candida albicans [26]): 16 µg/mL (≈ 76.5 µM); MIC (Micrococcus luteus [20]): > 64 µg/mL; GI50 (SF-295): inactive; GI50 (OVCAR-3): inactive; IC50 [21]: 3.9 µM; MIC (Streptococcus pneumoniae [22]): >100 µg; MIC (Candida albicans [23]): 16 µg/mL (≈ 76.5 µM); MBC (Neisseria gonorrhoeae [24]): 2 µg/mL (≈ 9.56 µM); MIC (Micrococcus luteus [25]): 25 µg; EC50 (P388): 0.24 µg/mL (≈ 1.15 µM) |
| COc1ccc(/C=C/[N+](=O)[O-])cc1O | <0.78 µg | > 64 µg/mL | 25 µg | 3.12 µg | 50 µg | > 64 µg/mL | 32 µg/mL (≈ 164 µM) | > 64 µg/mL | > 64 µg/mL | 64 µg/mL (≈ 328 µM) | 4 µg/mL (≈ 20.5 µM) | inactive | inactive | >100 µg | > 64 µg/mL | 0.78 µg | 32 µg/mL (≈ 164 µM) | 25 µg | 25 µg | > 64 µg/mL | GI50 (NCI-H460): inactive; GI50 (MCF7): inactive; GI50 (BXPC-3): inactive; GI50 (DU-145): inactive; GI50 (SF-268): inactive; GI50 (KM-20L2): inactive; MFC (Candida albicans [26]): 32 µg/mL (≈ 164 µM); MIC (Micrococcus luteus [20]): > 64 µg/mL; GI50 (SF-295): inactive; GI50 (OVCAR-3): inactive; IC50 [21]: 8.2 µM; MIC (Streptococcus pneumoniae [22]): 1.56 µg; MIC (Candida albicans [23]): 16 µg/mL (≈ 82 µM); MBC (Neisseria gonorrhoeae [24]): 4 µg/mL (≈ 20.5 µM); MIC (Micrococcus luteus [25]): >100 µg; ED50 (P388): inactive |
